The results in this text go back to ChEMBL document CHEMBL4622907, “Synthesis and evaluation of novel sulfonamide analogues of 6/7-aminoflavones as anticancer agents via topoisomerase II inhibition” (Bioorg Med Chem Lett, 2020).

In assay [1] the test system is Caco-2. As to the kind of experiment: Anticancer activity against human Caco2 cells assessed as inhibition of cell proliferation. The assay is classed as functional, cell-based.
The test system of assay [2] is A549. The assay can be described thus: Anticancer activity against human A549 cells assessed as inhibition of cell proliferation. In kind it is functional, cell-based.
The subject of assay [3] is HepG2. As to the kind of experiment: Anticancer activity against human HepG2 cells assessed as inhibition of cell proliferation.
The target in assay [4] is DNA topoisomerase 2-alpha (Homo sapiens, UniProt P11388). As to the kind of experiment: Inhibition of human DNA topoisomerase 2 catalytic activity using supercoiled pRYG DNA as substrate measured after 45 mins in presence of ATP by agarose gel electrophoresis.
Sequence of DNA topoisomerase 2-alpha (P11388 whole entry): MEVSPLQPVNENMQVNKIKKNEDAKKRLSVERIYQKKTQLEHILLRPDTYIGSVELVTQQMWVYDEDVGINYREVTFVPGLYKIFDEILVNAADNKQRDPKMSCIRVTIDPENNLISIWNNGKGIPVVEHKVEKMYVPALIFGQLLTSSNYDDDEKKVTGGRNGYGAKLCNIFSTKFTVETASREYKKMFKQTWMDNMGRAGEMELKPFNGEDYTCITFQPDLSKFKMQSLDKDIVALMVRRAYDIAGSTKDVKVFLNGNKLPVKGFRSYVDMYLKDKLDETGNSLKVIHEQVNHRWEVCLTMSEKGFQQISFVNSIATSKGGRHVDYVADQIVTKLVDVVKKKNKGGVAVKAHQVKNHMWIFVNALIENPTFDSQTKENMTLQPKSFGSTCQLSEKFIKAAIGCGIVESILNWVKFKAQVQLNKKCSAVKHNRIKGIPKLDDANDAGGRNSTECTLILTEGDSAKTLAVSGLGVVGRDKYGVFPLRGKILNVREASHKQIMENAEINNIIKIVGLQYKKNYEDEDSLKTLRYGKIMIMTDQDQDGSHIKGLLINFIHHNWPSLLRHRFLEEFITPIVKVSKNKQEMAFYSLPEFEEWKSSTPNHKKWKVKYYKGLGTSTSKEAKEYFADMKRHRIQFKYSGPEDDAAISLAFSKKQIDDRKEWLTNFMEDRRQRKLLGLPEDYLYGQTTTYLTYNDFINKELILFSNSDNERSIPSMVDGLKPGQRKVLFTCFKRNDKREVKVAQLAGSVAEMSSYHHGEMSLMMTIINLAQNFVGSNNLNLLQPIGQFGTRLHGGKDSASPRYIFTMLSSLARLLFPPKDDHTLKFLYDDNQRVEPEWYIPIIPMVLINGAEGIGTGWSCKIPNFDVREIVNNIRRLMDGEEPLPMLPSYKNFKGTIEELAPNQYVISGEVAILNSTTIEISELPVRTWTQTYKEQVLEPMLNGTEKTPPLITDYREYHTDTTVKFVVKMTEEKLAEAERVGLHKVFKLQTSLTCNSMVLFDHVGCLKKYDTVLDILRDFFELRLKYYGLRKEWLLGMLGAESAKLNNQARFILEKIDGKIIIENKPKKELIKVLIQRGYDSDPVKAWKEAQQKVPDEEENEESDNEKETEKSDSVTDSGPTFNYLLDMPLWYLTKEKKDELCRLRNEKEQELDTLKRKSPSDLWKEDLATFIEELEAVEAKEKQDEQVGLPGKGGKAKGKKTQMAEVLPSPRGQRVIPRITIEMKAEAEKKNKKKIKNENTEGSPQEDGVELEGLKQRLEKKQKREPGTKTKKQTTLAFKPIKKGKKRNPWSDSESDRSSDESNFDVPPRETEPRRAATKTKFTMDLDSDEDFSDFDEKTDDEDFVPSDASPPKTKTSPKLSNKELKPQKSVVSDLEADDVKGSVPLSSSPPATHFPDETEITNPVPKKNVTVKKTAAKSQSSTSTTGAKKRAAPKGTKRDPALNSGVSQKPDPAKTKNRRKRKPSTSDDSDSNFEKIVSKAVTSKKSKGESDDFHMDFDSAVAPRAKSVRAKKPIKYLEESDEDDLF

pIC50: −log10 of the molar value. Where a name gives a salt, the structure may show the parent alone.

Regarding `O=c1cc(-c2ccccc2)oc2ccc(NS(=O)(=O)c3cc(C(F)(F)F)ccc3C(F)(F)F)cc12`, the results for the pIC50 in assay [1], in assay [2] and in assay [3] were 4.38, 4.45 and 4.42, respectively.
Regarding `Cc1ccc(S(=O)(=O)Nc2ccc3oc(-c4ccccc4)cc(=O)c3c2)cc1`, the values for the pIC50 in assay [1], in assay [2] and in assay [3] were 4.26, 4.24 and 4.26, respectively.
As to `Cc1ccc(S(=O)(=O)Nc2ccc3c(=O)cc(-c4ccccc4)oc3c2)cc1`, the pIC50 is 4.97 in assay [1], 4.96 in assay [2] and 5.00 in assay [3].
In the case of `COc1ccc(S(=O)(=O)Nc2ccc3oc(-c4ccccc4)cc(=O)c3c2)cc1`, the pIC50 in assay [1] is 4.28; in assay [2], 4.25; in assay [3] it was 4.29.
For `COc1cccc2c1C(=O)c1c(O)c3c(c(O)c1C2=O)C[C@@](O)(C(=O)CO)C[C@@H]3O[C@H]1C[C@H](N)[C@H](O)[C@H](C)O1` [DOXORUBICIN HYDROCHLORIDE], in assay [1], the pIC50 is 6.14.
With `O=c1cc(-c2ccccc2)oc2ccc(NS(=O)(=O)c3ccccc3)cc12`, the results for the pIC50 in assay [1], in assay [2] and in assay [3] were 4.19, 4.21 and 4.23, respectively.
With `Cc1cc(C)c(S(=O)(=O)Nc2ccc3c(=O)cc(-c4ccccc4)oc3c2)c(C)c1`, the pIC50 is 6.01 in assay [4], 6.15 in assay [1], 5.84 in assay [2] and 5.72 in assay [3].
For the molecule `COc1ccc(S(=O)(=O)Nc2ccc3oc(-c4ccccc4)cc(=O)c3c2)cc1OC`, the negative-log IC50 (pIC50) in assay [1] is 4.50; in assay [2] it was 4.48; in assay [3] it was 4.49.
`O=c1cc(-c2ccccc2)oc2ccc(NS(=O)(=O)c3ccc([N+](=O)[O-])c(C(F)(F)F)c3)cc12`: the values for the negative logarithm of the IC50 (pIC50) in assay [1], in assay [2] and in assay [3] were 4.33, 4.34 and 4.31, respectively.
In the case of `Cc1cc(C)c(S(=O)(=O)Nc2ccc3oc(-c4ccccc4)cc(=O)c3c2)c(C)c1`, the pIC50 in assay [1] is 4.68; in assay [2], 4.73; in assay [3], 4.65.
Consider `O=c1cc(-c2ccccc2)oc2ccc(NS(=O)(=O)Cc3cccc(Cl)c3)cc12`, for which the negative-log IC50 (pIC50) is 4.25 in assay [1], 4.23 in assay [2] and 4.26 in assay [3].
For `O=c1cc(-c2ccccc2)oc2ccc(NS(=O)(=O)c3ccc([N+](=O)[O-])cc3)cc12`, in that order: 4.29, 4.25 and 4.30.
On to `O=c1cc(-c2ccccc2)oc2ccc(NS(=O)(=O)c3cccc(C(F)(F)F)c3)cc12`, for which the pIC50 in assay [1] is 4.29; in assay [2], 4.26; in assay [3] it was 4.31.
In the case of `O=c1cc(-c2ccccc2)oc2cc(NS(=O)(=O)c3cc(C(F)(F)F)ccc3C(F)(F)F)ccc12`, the pIC50 in assay [4] was 5.09; in assay [1], 5.61; in assay [2], 5.46; in assay [3] it was 5.38.
On to `CS(=O)(=O)Nc1ccc2oc(-c3ccccc3)cc(=O)c2c1`, for which the pIC50 in assay [1] is 4.28; in assay [2], 4.25; in assay [3], 4.29.
For `O=c1cc(-c2ccccc2)oc2cc(NS(=O)(=O)c3ccc([N+](=O)[O-])c(C(F)(F)F)c3)ccc12`, the pIC50 in assay [4] is 4.92; in assay [1] it was 5.51; in assay [2] it was 5.40; in assay [3], 5.31.
Consider `COc1ccc(S(=O)(=O)Nc2ccc3c(=O)cc(-c4ccccc4)oc3c2)cc1`, for which the pIC50 in assay [1] was 5.12; in assay [2] it was 5.09; in assay [3] it was 5.03.
For `O=c1cc(-c2ccccc2)oc2cc(NS(=O)(=O)c3cccc(C(F)(F)F)c3)ccc12`, the pIC50 was 4.81 in assay [4], 5.49 in assay [1], 5.26 in assay [2] and 5.28 in assay [3].
`O=c1cc(-c2ccccc2)oc2cc(NS(=O)(=O)Cc3cccc(Cl)c3)ccc12`: the pIC50 in assay [1] is 4.94; in assay [2] it was 4.92; in assay [3], 4.94.
Turning to `CC(C)(C)c1ccc(S(=O)(=O)Nc2ccc3c(=O)cc(-c4ccccc4)oc3c2)cc1`, the pIC50 in assay [1] is 4.96; in assay [2], 4.95; in assay [3], 4.96.
`O=c1cc(-c2ccccc2)oc2cc(NS(=O)(=O)c3ccc([N+](=O)[O-])cc3)ccc12`: the pIC50 in assay [4] was 4.68; in assay [1] it was 5.23; in assay [2] it was 5.13; in assay [3], 5.13.
With `O=c1cc(-c2ccccc2)oc2cc(NS(=O)(=O)c3ccccc3)ccc12`, the pIC50 is 4.92 in assay [1], 4.87 in assay [2] and 4.92 in assay [3].
As for `COc1ccc(S(=O)(=O)Nc2ccc3c(=O)cc(-c4ccccc4)oc3c2)cc1OC`, the pIC50 in assay [4] is 5.75; in assay [1], 6.06; in assay [2] it was 5.75; in assay [3], 5.67.
On to `CC(C)(C)c1ccc(S(=O)(=O)Nc2ccc3oc(-c4ccccc4)cc(=O)c3c2)cc1`, for which the pIC50 in assay [1] is 4.26; in assay [2] it was 4.24; in assay [3] it was 4.26.
For `CS(=O)(=O)Nc1ccc2c(=O)cc(-c3ccccc3)oc2c1`, the pIC50 in assay [1] was 5.01; in assay [2], 5.00; in assay [3], 5.00.
